Data as given in patent publication US9566265B2, “Carbazole compounds and therapeutic uses of the compounds” (Incuron, LLC, priority 2008, dated 2017).
Values after ≈ are worked out from the molar mass of the structure shown. Like-named read-outs stand apart in the source and are kept apart here.

How the values were obtained:
C. lusitaniae = assay: in vitro susceptibility CLSI M27A3, MIC; type: cell-based; details: Clavispora lusitaniae, strain 200450, WT, Susceptible
From the text: (§1) Other Candida spp. and genera: 1 C. rugosa (M83), 1 C. lipolytica (M159), C. lusitaniae (200450), 1 Cryptococcus neoformans (499), and 1 Debaryomyces hansenii.

Cryptococcus neoformans = assay: in vitro susceptibility CLSI M27A3, MIC; type: cell-based; details: strain 499, WT, Susceptible
From the text: as §1

Debaryomyces hansenii = assay: in vitro susceptibility CLSI M27A3, MIC; type: cell-based; details: strain 20124, WT, Susceptible
From the text: as §1

C. lipolytica = assay: in vitro susceptibility CLSI M27A3, MIC; type: cell-based; details: Yarrowia lipolytica, strain M159, WT, Susceptible
From the text: as §1

C. rugosa = assay: in vitro susceptibility CLSI M27A3, MIC; type: cell-based; details: Diutina rugosa, strain M83, WT, Susceptible
From the text: as §1

[1] = system: human HCT-8 ileocecal adenocarcinoma xenografts
Experimental: (§2) In this study, the antitumor effect and toxicity of the three carbazoles against HCT-8 and HT29 colon cancer tumors were compared with treatment beginning when the tumor size reached 150-200 mg (about 7 days after tumor transplantation).
Eight to twelve-week-old female athymic nude mice (nu/nu, body weight 22-25 g) were obtained from Harlan Sprague Dawley Inc. (Indianapolis, Ind.) and maintained at five mice/cage with water and food ad libitum according to an institutionally approved animal protocol.
Human ileocecal adenocarcinoma HCT-8 and colon adenocarcinoma HT-29 xenografts were used. The xenografts were initially established by injecting s.c 10^6 cultured cells and tumors were passed several generations by transplanting about 50 mg non-necrotic tumor (2-3 pieces) via a trocar from the passage tumors when the tumors reach to 1-1.5 g.
Treatment was initiated 7 days after tumor transplantation when the tumors reached 150-200 mg. The mice in the control group received the vehicle (0.2% hydroxypropylmethylcellulose) at 200 μl per 20 g mouse body weight (same as the treatment groups). Five mice were used for each experimental group with 10 tumors (1 tumor each in the left and right side flanks).
Two axes (mm) of tumor (L, longest axis; W, shortest axis) were measured with the aid of a Vernier caliper. Tumor weight (mg) was estimated using a formula: tumor weight=½ (L×W2). Tumor measurements were taken daily at the same time as drug treatment and 3-4 times a week of post therapy.
The kinetics of drug-induced toxicities (body weight loss, diarrhea, and lethality) were determined daily for the first 10 days after treatment and every two days thereafter.
Antitumor activity was assessed by maximum tumor growth inhibition (MTRI) which is the mean tumor weight of treated group (MTWTG) compared with untreated control group (MTWCG) at the same time point (MTRI=MTWTG−MTWCG)÷MTWCG×100%). The tumor doubling time (TDT) was defined as the mean time for the tumor to reach twice its initial weight. Tumor response was expressed as partial tumor response (PR) when tumor weight was reduced at least 50% of the initial tumor size and complete tumor response (CR) was defined as the inability to detect tumor upon palpation at the initial site of tumor appearance.

Bacillus subtilis = assay: antibacterial cytotoxicity assay, gram(+) bacteria (OD600); type: cell-based; details: B. subtilis, 48 hours, over a range of potencies; FIG. 13B
Experimental: In vitro test to evaluate the effect of carbazole compounds on gram(-) and gram(+) bacteria. Two days prior to the start of the cytotoxicity assay, inoculate DH5-α and B. subtilis into 1 ml of corresponding media from glycerol stocks. Allow to grow during the course of the day at 37° C. with shaking. Streak each bacteria on the appropriate agar plates using a sterile inoculation loop and allow to grow overnight at 37° C. in the bacteria incubator. Using a sterile inoculation loop, pick a single colony of bacteria and inoculate 5 ml of the corresponding media in a 14 ml snap cap tube. Grow overnight ( 16 h) at 37° C. with shaking. […] Dilute 5 ml cultures of DH5-α and B. subtilis to an OD600 nm of 0.002, which corresponds to about 2×10^6 cells/ml in a volume sufficient for the experiment (dependent on the number of plates). Plate out 50 μl into each well of X 96-well plates (X=# plates needed for a given experiment). […] Chemicals for testing are prepared by dilution of stock solutions in LB Broth or Nutrient Broth for DH5-α and B. subtilis studies, respectively. Cells are treated with the final chemical concentrations presented in the scheme below (Table 2). Stock solutions are made up in DMSO. […] However, this concentration is dependent on the solubility of a given chemical and actual stock concentrations must be noted at time of experiment. Each library chemical to be tested requires 2 rows of a 96-well plate, thus 4 chemicals ([…]) can be tested in one plate simultaneously. In addition to test chemicals, each plate should include positive and negative controls. As positive control, ampicillin is used at 100 μg/ml. […] Dilutions of chemicals to be added to the plate are made up as 2× concentrations in appropriate bacteria media and added to corresponding wells in a volume of 50 μl. […] This process is repeated until all 10 2× doses are prepared. […] Following the addition of carbazole compounds to 96-well plates containing bacteria, plates are transferred to the 37° C. bacteria incubator for 48 hours. After the incubation, the OD600 mm for each well of the 96-well plates will be measured. […] The % DMSO control is plotted vs compound concentration to generate sigmoid shaped curves. After three runs are complete, the raw data for all three runs is used for IC50 calculations.

[2] = system: HCT-116, DLD1, Caki1 and MDA-MB-231 tumors; assay: various human tumour xenografts sc; type: in vivo, nude or SCID mice; details: tumor cells inoculated as a cell suspension
Experimental: as §2

A. flavus = assay: in vitro susceptibility CLSI M38A2, MIC; details: Aspergillus flavus
From the text: (§3) Eight Aspergillus spp. strains were used throughout the study. Six A. fumigatus, one A. flavus and one A. terreus also were used. The A. fumigatus group included two itraconazole-resistant strains (RIT13 and RIT5 strains) (1), one triazole cross-resistant strain (MUT10) (2, 3), one echinocandin cross-resistant strain (EMFRS678P) (4), and 2 wild type susceptible isolates (R21 and ATCC13073).

A. terreus = assay: in vitro susceptibility CLSI M38A2, MIC; details: Aspergillus terreus
From the text: as §3

in vivo = details: nude, mouse, po
Experimental: Drug doses and schedule. […] Treatment was initiated 7 days after tumor transplantation when the tumors reached 150-200 mg. The mice in the control group received the vehicle (0.2% hydroxypropylmethylcellulose) at 200 μl per 20 g mouse body weight (same as the treatment groups). Five mice were used for each experimental group with 10 tumors (1 tumor each in the left and right side flanks).
Maximum Tolerated Dose (MTD) and toxicity evaluation. […] The kinetics of drug-induced toxicities (body weight loss, diarrhea, and lethality) were determined daily for the first 10 days after treatment and every two days thereafter.

C. tropicalis = assay: microbe, parasite or virus in culture; type: cell-based; details: Candida tropicalis
From the text: Candida spp. strains: 20 Candida spp. clinical isolates and one laboratory control strain (C. albicans SC5314) was used in the study. In the collection were included:
2 C. tropicalis strains, one ATCC control strain (ATCC 750), and one echinocandin cross-resistant (T3) (11).

HB 101 E. coli = assay: antibacterial cytotoxicity assay, gram(−) bacteria (OD600); type: cell-based; details: 48 hours, over a range of potencies, FIG. 13A
[3] = system: clinical and laboratory fungal strains; assay: in vitro susceptibility, summaries over groups of fungal strains; type: cell-based, Aspergillus spp., yeast
From the text: Aspergillus spp. […] Moreover, there were no MIC differences between susceptible and azole or echinocandin resistant strains (Table 1).
On average, yeast MICs were 8-fold lower than Aspergillus spp. MIC (Table 1). MICs obtained for Example 15 are compatible or better than MICs for conventional antifungal drugs.

[4] = system: Caki1 human renal cell carcinoma cells; assay: Caki1 renal cell carcinoma xenograft efficacy test
Experimental: In an efficacy test using these three compounds, athymic nude mice were inoculated subcutaneously with a suspension of Caki1 human renal cell carcinoma cells into both rear flanks. When at least one tumor in a mouse reached 20-50 mm^3, treatment was commenced. […] As a positive control, one group was treated with 40 mg/kg Sunitinib, an approved drug for the treatment of renal cell carcinoma. Treatment was given for 4 weeks on a 5 day on/2 day off schedule. After treatment was completed, mice were monitored for an additional 4 weeks to determine how quickly tumor growth returned to normal.

CCN(CC)CCn1c2ccc3c(c2c2c4c(ccc21)C(=O)CC4)CCC3=O [Example 15]
MIC (C. lusitaniae; read-out: MIC* (24 hs)): 0.04 µM (≈ 0.015 µg/mL)
MIC (C. lusitaniae; read-out: MIC* (48 hs)): 0.16 µM (≈ 0.0599 µg/mL)
MIC (Cryptococcus neoformans; read-out: MIC* (24 hs)): 0.02 µM (≈ 0.00749 µg/mL)
MIC (Cryptococcus neoformans; read-out: MIC* (48 hs)): 0.08 µM (≈ 0.03 µg/mL)
MIC (Debaryomyces hansenii; read-out: MIC* (24 hs)): 0.16 µM (≈ 0.0599 µg/mL)
MIC (Debaryomyces hansenii; read-out: MIC* (48 hs)): 0.16 µM (≈ 0.0599 µg/mL)
MIC (C. lipolytica; read-out: MIC* (24 hs)): 0.02 µM (≈ 0.00749 µg/mL)
MIC (C. lipolytica; read-out: MIC* (48 hs)): 0.08 µM (≈ 0.03 µg/mL)
MIC (C. rugosa; read-out: MIC* (24 hs)): 0.16 µM (≈ 0.0599 µg/mL)
MIC (C. rugosa; read-out: MIC* (48 hs)): 0.66 µM (≈ 0.247 µg/mL)
Antitumor Activity MTGI (%) ([1]; p.o. at MTD, 5 days on/2 days off per week, Example 15 5, Example 7 30, Example 13 25 mg/kg/d): 40.0 ± 18.6%
Toxicity (%) lethality ([1]; same): 0%
CR (%) ([1]; same, complete tumor response): 0%
Toxicity (%) MWL ([1]; same, maximum weight loss of pretreatment body weight): 10.0 ± 3.8%
PR (%) ([1]; same, partial tumor response): 0%
Antitumor Activity TDT ([1]; same, tumor doubling time): 7.5 ± 3.5 days
delay of tumor growth compared to the vehicle control (double time 4.8 days) ([1]; text b677): 57%
antibacterial effect (Bacillus subtilis): antibacterial effect
antitumor efficacy [2]: antitumor efficacy
MIC (A. flavus; read-out: MIC* (24 hs)): 0.33 µM (≈ 0.124 µg/mL)
MIC (A. flavus; read-out: MIC* (48 hs)): 0.33 µM (≈ 0.124 µg/mL)
MIC (A. terreus; read-out: MIC* (24 hs)): 0.08 µM (≈ 0.03 µg/mL)
MIC (A. terreus; read-out: MIC* (48 hs)): 1.28 µM (≈ 0.479 µg/mL)
MTD at 4 weeks (in vivo): 5 mg/kg/day
MIC (C. tropicalis; strain ATCC750, WT, Susceptible, read-out: MIC* (24 hs)): 0.08 µM (≈ 0.03 µg/mL)
MIC (C. tropicalis; strain ATCC750, WT, Susceptible, read-out: MIC* (48 hs)): 0.16 µM (≈ 0.0599 µg/mL)
MIC (C. tropicalis; strain T3, Fks1pS645S/P, Echinocandin cross-resistant, read-out: MIC* (24 hs)): 0.04 µM (≈ 0.015 µg/mL)
MIC (C. tropicalis; strain T3, Fks1pS645S/P, Echinocandin cross-resistant, read-out: MIC* (48 hs)): 0.08 µM (≈ 0.03 µg/mL)
antibacterial effect (HB 101 E. coli): antibacterial effect
yeast MICs lower than Aspergillus spp. MIC, on average [3]: 8 fold
MIC ([3]; A. flavus and A. terreus strains, read-out: 24 hs MIC Geom. Means): 0.4 µM (≈ 0.15 µg/mL)
weight loss ([4]; 5 mg/kg oral, short-term): 10-15%
tumor growth inhibition compared to the vehicle control ([4]; Day 24 (end of treatment), oral gavage 5 day on/2 day off, Example 7 30, Example 15 5, Example 13 25, Sunitinib 40 mg/kg): 50%
